{"source": "patent US9763973B2", "about": "“Agent for treating HTLV-I associated myelopathy” (NAGASAKI UNIVERSITY, priority 2011, dated 2017)", "key": {"HTLV-I": {"tested_on": "HTLV-I", "conditions": "in vitro; non-patent documents 4-6; cited from earlier work"}, "HAM patients [1]": {"tested_on": "HAM patients", "conditions": "in vivo test; non-patent documents 4 and 5; cited from earlier work"}, "[2]": {"tested_on": "peripheral blood lymphoblastogenesis", "assay": "lymphoblastogenesis test (stimulation index to PHA), clinical test in HAM patients", "assay_type": "in vivo, human", "procedure": "(§1) Subject: 12 cases of HAM patients (9 females, 3 males, age; 49-77 years old, duration of illness; 3-52 years) (Table 1).\n(§2) Test method: Sodium pentosan polysulfate was subcutaneously administered by 25 mg for the first time (0 week), 50 mg 1 week later, 100 mg once a week from the second week to the 7th week to the brachial region. The test medicament was used in 1 ml ampoule of sodium pentosan polysulfate (100 mg/ml) supplied by bene pharmaChem of Germany.\n(§3) Test items: the subjective symptoms and neurological observations (including spasticity, gait time, time for descending stairs, motility dysfunction level and the like) were checked at the time of screening, week 0 (initial administration), week 8 from the start of treatment (week 1 after completion of treatment) and week 12 from the start of treatment (week 5 after completion of treatment). Similarly, general clinical tests, and immunological (serum soluble IL-2 receptor (sIL-2R), peripheral blood lymphoblastogenesis test) and virological tests (amount of peripheral blood HTLV-I provirus (real-time quantitative PCR method), anti-HTLV-I antibody titer) were performed."}, "[3]": {"tested_on": "serum soluble IL-2 receptor (sIL-2R)", "assay": "serum soluble IL-2 receptor (sIL-2R), clinical test in HAM patients", "assay_type": "in vivo, human", "conditions": "for sIL-2R: individual HAM cases, same s.c. regimen", "procedure": "as §1, §2, §3"}, "anti-HTLV-I antibody": {"tested_on": "anti-HTLV-I antibody", "assay": "anti-HTLV-I antibody titer (PA method), clinical test in HAM patients", "assay_type": "in vivo, human", "conditions": "start vs week 8, week 12 (Table 4)", "procedure": "as §1, §2, §3"}, "HTLV-I provirus [4]": {"tested_on": "HTLV-I provirus", "assay": "amount of peripheral blood HTLV-I provirus (real-time quantitative PCR), clinical test in HAM patients", "assay_type": "in vivo, human", "conditions": "for HTLV-I provirus amount, average: average of 12 cases, average at start 1268; for HTLV-I provirus amount: individual HAM cases, same s.c. regimen", "procedure": "Therefore, for virological evaluation, the amount of peripheral blood HTLV-I provirus was monitored, immunological markers predicted to vary depending on a decrease in the provirus was simultaneously monitored, and the effect of pentosan polysulfate on HTLV-I was verified. In addition, the clinical effects (lower leg motility function etc.) were evaluated simultaneously with the measurement of the virus amount, and the correlation between a decrease in the virus amount and the clinical effect was confirmed. Furthermore, the amount of HTLV-I provirus was measured before and after administration of pentosan polysulfate, and a virus, amount decreasing effect of pentosan polysulfate was confirmed, whereby the possibility of providing a causal therapy was verified. Subject: 12 cases of HAM patients (9 females, 3 males, age; 49-77 years old, duration of illness; 3-52 years) (Table 1). Test method: Sodium pentosan polysulfate was subcutaneously administered by 25 mg for the first time (0 week), 50 mg 1 week later, 100 mg once a week from the second week to the 7th week to the brachial region. The test medicament was used in 1 ml ampoule of sodium pentosan polysulfate (100 mg/ml) supplied by bene pharmaChem of Germany."}, "HAM patients [5]": {"tested_on": "HAM patients", "assay": "10 m gait time, clinical test in HAM patients", "assay_type": "in vivo, human", "conditions": "for 10 m gait: individual HAM cases, same s.c. regimen; for 10 m gait, mean value: mean of tested cases", "from_the_text": "(§4) The main symptoms of HAM are motility/gait disorders and the like. As items for the clinical evaluation of these symptoms, lower leg motility function (walking time, time for descending stairs, spasticity, motility dysfunction level etc.) tests and the like can be mentioned. By evaluating these items before and after administration of pentosan polysulfate, the treatment effect of subcutaneous injection of pentosan polysulfate on HAM was verified.\nas §1, §2, §3"}, "HAM patients [6]": {"tested_on": "HAM patients", "assay": "30 m gait time, clinical test in HAM patients", "assay_type": "in vivo, human", "conditions": "for 30 m gait: individual HAM cases, same s.c. regimen; for 30 m gait, mean value: mean of tested cases", "from_the_text": "as §4, §1, §2, §3"}, "HAM patients [7]": {"tested_on": "HAM patients", "assay": "time for descending stairs (10 stairs), clinical test in HAM patients", "assay_type": "in vivo, human", "conditions": "for descending stairs (10 stairs): individual HAM cases, same s.c. regimen; for descending stairs, mean value: mean of tested cases", "from_the_text": "as §4, §1, §2, §3"}, "HAM patients [8]": {"tested_on": "HAM patients", "assay": "spasticity on modified Ashworth scale (MAS), clinical test in HAM patients", "assay_type": "in vivo, human", "conditions": "individual HAM cases; same s.c. regimen; blank = spasticity absent from the start", "from_the_text": "Spasticity is one type of hypertonia, and caused by an abnormal increase in the muscle stretch reflex. Clinically, spasticity is a speed-dependent resistance to stretch, which is defined to be the state wherein the muscle is excessively contracted due to the lack of suppression from the central nervous system, which finally leads to an increase in the reflection. As a measurement method of spasticity, the Ashworth scale is well known, and its modified version by Bohannon is often used clinically (modified Ashworth scale; Bohannon R W, Smith M B: Interrater reliability of a Modified Ashworth Scale of Muscle Spasticity. Phys Ther 67: 206-207, 1987). […]\nas §3"}, "HAM patients [9]": {"tested_on": "HAM patients", "assay": "motility dysfunction level (Osame scale), clinical test in HAM patients", "assay_type": "in vivo, human", "conditions": "12 HAM cases; 0-13 scale; changes not found in other cases", "from_the_text": "As regards the gait disorder due to HAM-related spastic paraplegia, the gait disorder in the present specification includes not only disorder in walking but also disorder in running and ascending and descending stairs, as well as wheelchair state and bedridden state due to gait function disorders. […]\nas §3, with “performed. […]” for “performed.”"}, "HAM": {"tested_on": "HAM", "conditions": "recent case-control study; non-patent document 3; cited from earlier work"}, "HTLV-I provirus [10]": {"tested_on": "HTLV-I provirus", "conditions": "anti-HTLV-I therapy with HDAC inhibitor; cited from earlier work"}}, "note": "Several values for one entry are separate records, joined by “and”; a condition that tells them apart may be missing. Equal entries are not always repeated."}
{"compound": "heparin", "values": [{"measurement": "HTLV-I infection inhibitory action", "setting": "HTLV-I", "value": "shows an HTLV-I infection inhibitory action"}, {"measurement": "clinical effectiveness for HAM patients", "setting": "HAM patients [1]", "value": "clinically effective for HAM patients"}]}
{"compound": "sodium pentosan polysulfate", "values": [{"measurement": "lymphoblastogenesis test (stimulation index to PHA)", "setting": "[2]; individual HAM cases (table row = case no.), s.c. 25 mg wk 0, 50 mg wk 1, 100 mg weekly wk 2-7, week 8 from start", "value": "9.2 and 12.4 and 4.7 and 7.9 and 16.3 and 14 and 13.3 and 9.4 and 3.7 and 9.7 and 11.9 and 8.2"}, {"measurement": "lymphoblastogenesis test (stimulation index to PHA)", "setting": "[2]; individual HAM cases, same s.c. regimen, week 12 from start (week 5 after completion)", "value": "6.1 and 7.1 and 6.7 and 15 and 18.1 and 24.7 and 17.2 and 9.3 and 4.9 and 9.2 and 12.2 and 6.9"}, {"measurement": "lymphoblastogenesis test, significance of change", "setting": "[2]; start vs week 8, week 12 (Table 2)", "value": "significant difference was not observed"}, {"measurement": "sIL-2R", "setting": "[3]; week 2", "value": "511 pg/mL and 1462 pg/mL and 1086 pg/mL and 933 pg/mL and 1475 pg/mL and 1741 pg/mL and 1524 pg/mL and 1405 pg/mL and 2264 pg/mL and 1256 pg/mL and 1688 pg/mL and 1474 pg/mL"}, {"measurement": "sIL-2R", "setting": "[3]; week 8", "value": "577 pg/mL and 1482 pg/mL and 904 pg/mL and 1152 pg/mL and 1475 pg/mL and 1551 pg/mL and 1460 pg/mL and 1954 pg/mL and 2420 pg/mL and 1452 pg/mL and 1774 pg/mL and 1964 pg/mL"}, {"measurement": "sIL-2R", "setting": "[3]; week 12", "value": "627 pg/mL and 1357 pg/mL and 914 pg/mL and 1073 pg/mL and 1557 pg/mL and 1706 pg/mL and 1716 pg/mL and 1864 pg/mL and 2516 pg/mL and 1480 pg/mL and 1882 pg/mL and 1774 pg/mL"}, {"measurement": "soluble IL-2 receptor (sIL-2R) test, significance of change", "setting": "[3]; start vs weeks 2, 8, 12 (Table 3)", "value": "significant difference was not observed"}, {"measurement": "anti-HTLV-I antibody test, significance of change", "setting": "anti-HTLV-I antibody", "value": "significant difference was not observed"}, {"measurement": "HTLV-I provirus amount, significance of change", "setting": "HTLV-I provirus [4]; all 12 cases, week 8 from start of treatment", "value": "no significant difference"}, {"measurement": "average decrease in amount of HTLV-I provirus", "setting": "HTLV-I provirus [4]; all 12 cases, week 8 from start of treatment vs start", "value": "about 9%"}, {"measurement": "HTLV-I provirus amount, average", "setting": "HTLV-I provirus [4]; week 8", "value": 1153, "unit": "copy number/10^4 PBMC"}, {"measurement": "HTLV-I provirus amount, average", "setting": "HTLV-I provirus [4]; week 12", "value": 1241, "unit": "copy number/10^4 PBMC"}, {"measurement": "HTLV-I provirus amount", "setting": "HTLV-I provirus [4]; week 8", "value": "1140 copy number/10^4 PBMC and 648 copy number/10^4 PBMC and 699 copy number/10^4 PBMC and 503 copy number/10^4 PBMC and 999 copy number/10^4 PBMC and 2149 copy number/10^4 PBMC and 479 copy number/10^4 PBMC and 830 copy number/10^4 PBMC and 2030 copy number/10^4 PBMC and 1621 copy number/10^4 PBMC and 837 copy number/10^4 PBMC and 1900 copy number/10^4 PBMC"}, {"measurement": "HTLV-I provirus amount", "setting": "HTLV-I provirus [4]; week 12", "value": "1750 copy number/10^4 PBMC and 668 copy number/10^4 PBMC and 697 copy number/10^4 PBMC and 471 copy number/10^4 PBMC and 1032 copy number/10^4 PBMC and 2052 copy number/10^4 PBMC and 460 copy number/10^4 PBMC and 767 copy number/10^4 PBMC and 2380 copy number/10^4 PBMC and 1971 copy number/10^4 PBMC and 853 copy number/10^4 PBMC and 1794 copy number/10^4 PBMC"}, {"measurement": "HTLV-I provirus amount, course after completion of administration", "setting": "HTLV-I provirus [4]; week 5 after completion of administration (week 12)", "value": "a tendency of returning to the amount at the start of the treatment"}, {"measurement": "10 m gait", "setting": "HAM patients [5]; week 8", "value": "7.5 s and 5.5 s and 15.8 s and 6.4 s and 8.9 s and 11.5 s and 6.5 s and 32.5 s and 13.9 s and 18.5 s"}, {"measurement": "10 m gait", "setting": "HAM patients [5]; week 12", "value": "7.1 s and 5.3 s and 16.9 s and 6.2 s and 9.7 s and 12.5 s and 6.5 s and 31.9 s and 15.8 s and 19.9 s"}, {"measurement": "10 m gait, mean value", "setting": "HAM patients [5]; week 8, mean at start 14.7 (Table 6 in seconds)", "value": 12.7}, {"measurement": "10 m gait, mean value", "setting": "HAM patients [5]; week 12, mean at start 14.7", "value": 13.2}, {"measurement": "30 m gait", "setting": "HAM patients [6]; week 8", "value": "22.1 s and 16.8 s and 52.3 s and 20.8 s and 26.7 s and 36.5 s and 20.5 s and 96.5 s and 41.6 s"}, {"measurement": "30 m gait", "setting": "HAM patients [6]; week 12", "value": "22 s and 16.6 s and 59.6 s and 19.8 s and 28.6 s and 38.1 s and 20.5 s and 97.5 s and 45.4 s"}, {"measurement": "30 m gait, mean value", "setting": "HAM patients [6]; week 8, mean at start 41.7 (Table 7 in seconds)", "value": 37.1}, {"measurement": "30 m gait, mean value", "setting": "HAM patients [6]; week 12, mean at start 41.7", "value": 38.7}, {"measurement": "descending stairs (10 stairs)", "setting": "HAM patients [7]; week 8", "value": "4.8 seconds (2×) and 4 seconds and 17.5 seconds and 9.1 seconds (2×) and 7.4 seconds and 4.1 seconds"}, {"measurement": "descending stairs (10 stairs)", "setting": "HAM patients [7]; week 12", "value": "4.9 seconds and 4 seconds (3×) and 21.2 seconds and 12.4 seconds and 8.7 seconds and 8.9 seconds"}, {"measurement": "descending stairs, mean value", "setting": "HAM patients [7]; week 8, mean at start 9.3 (Table 8 in seconds)", "value": 7.6}, {"measurement": "descending stairs, mean value", "setting": "HAM patients [7]; week 12, mean at start 9.3", "value": 8.5}, {"measurement": "improvement of spasticity (evaluated on modified Ashworth scale (MAS))", "setting": "HAM patients [8]", "value": "(+) (evaluated (+) when either lower leg improved by 1 grade or more)"}, {"measurement": "improvement in motility dysfunction level", "setting": "HAM patients [9]", "value": "only in one case (from 6 to 5 in week 8)"}, {"measurement": "HTLV-I infection inhibitory action", "setting": "HTLV-I", "value": "very strong HTLV-I infection inhibitory action at a low dose as compared to heparin"}]}
{"compound": "zidovudine+lamivudine", "values": [{"measurement": "effectiveness as anti-HTLV-I therapy for HAM", "setting": "HAM", "value": "effectiveness thereof was not verified"}]}
{"compound": "CCCC(CCC)C(=O)O", "note": "[valproic acid]", "values": [{"measurement": "effect on amount of peripheral blood HTLV-I provirus", "setting": "HTLV-I provirus [10]", "value": "transiently and markedly increases the amount of peripheral blood HTLV-I provirus"}]}
